row,Compound,melting point [°C]
1,CCC1(C)CC(S(=O)(=O)Cc2c(F)cccc2F)=NO1 (centres undefined),64 to 65
2,Nc1ccc(CCCCOCCCCCCNCC(O)c2cc(O)cc(O)c2)cc1 (centres undefined),157 to 159
3,O=C(CN1CCN(CCSc2nc3cccc(C(F)(F)F)c3o2)CC1)Nc1c(C(F)(F)F)cc(OCc2ccccc2)cc1C(F)(F)F,156 to 158
4,N#Cc1c(-c2ccc(F)cc2)cc2c3c1ccn3C(=O)CNC2,248 to 250
5,CC(C)CCN1C(=O)C(NC(=O)Oc2cccc(N(C)C)c2)C(=O)N(c2ccccc2F)c2ccccc21 (centres undefined),193 to 194
6,CCn1nc2c(N)nc3cnccc3c2c1CC(C)(C)O,277 to 279
7,CC(=O)SCC(CC(=O)c1ccc(Br)cc1)C(=O)OCc1ccccc1 (centres undefined),79 to 80
8,CCCCCCCCCCCCCCCCCCNC(=O)Nc1cccc([N+](=O)[O-])c1,102 to 104
9,CCOC(=O)c1ccc(NC)c(C(O)c2ccccc2)c1 (centres undefined),132 to 135
10,COc1cc(OC)cc(N2CCN(C(=O)N(C)c3cc4ccccc4cc3OC)CC2)c1,83 to 85
11,CCn1c(=O)ccc2cnc(Nc3cccc(F)c3)nc21,210 to 212
12,O=[N+]([O-])c1c(Cl)cccc1CS(=O)(=O)c1ccccc1,141 to 142
13,CCN1C(=O)C(=CC=C2C=C3c4ccccc4CCN3C3=C2CCCC3)C(=O)N(CC)C1=S,320
14,CCCCCCCCCCC(O)C(O)CNCc1ccccc1 (centres undefined),52.6 to 53
15,Cc1nc(OCc2cccc(C(F)(F)F)c2)c(C(=O)Nc2ccccc2)s1,113
16,CCON=C(C(=O)OCC)C1=CSc2ccccc2S1,78 to 81
17,O=C(NCc1cccc(-c2nc(=O)c3ccccc3s2)n1)c1ccccc1,214 to 215
18,CC1=C(C(=O)OC(C)C)C(c2cccc([N+](=O)[O-])c2)n2c(cc(=O)n2Cc2ccccc2)N1 (centres undefined),184 to 185
19,CN1CCN(c2n[nH]c(=S)n2C2CCc3ccccc3C2)CC1 (centres undefined),217 to 218
20,CCN(CC)CCCN1CCC(O)(c2ccccc2)C(C(=O)c2ccccc2)C1 (centres undefined),76 to 78
21,O=C(O)Cc1ccc(NC(=O)CCc2cnn(-c3ccccc3)c2-c2ccccc2)cc1,199 to 201
22,CCCCC(Cc1ccc(OCc2ccccc2)cc1)(C(=O)OCC)C(=O)OCC,73
23,CCC(CC)Nc1cc(C)nc(Oc2c(C)cc(C)cc2C)c1N,105 to 107
24,COc1ccc(NC(=O)Nc2ccc(Cl)c(Cl)c2)cc1NC(=S)Nc1cc(C(F)(F)F)cc(C(F)(F)F)c1,181
25,CC(C)c1ccc(N2CC(=O)N(c3cccc(C(=O)O)c3)C2=O)cc1,224 to 226

row,Compound,melting point [°C]
1,CCCCCn1c(C#N)ccc1-c1ccc2c(c1)C(C)(C)OC(=O)N2,128 to 131
2,COc1ccc(-n2c(Cl)ccc2-c2ccc(S(N)(=O)=O)cc2)cc1,119 to 120
3,O=C(CCCCc1ncc[nH]1)NNC(=O)N1Cc2ccccc2Oc2ccc(Cl)cc21,164 to 166
4,Cc1c(CNCCc2cc3cccc(F)c3n2C)ncn1S(=O)(=O)N(C)C,114 to 116
5,Cc1c(C)c2ccc(OCCCN3CCC(N)CC3)cc2oc1=O,92 to 94
6,O=C1c2c(O)cccc2C(Sc2ccccc2)c2cccc(O)c21,156 to 157
7,COc1ccc(NC(=O)c2cnc3ccccc3c2O)cc1,> 260
8,Cc1cc(Oc2cccc(C(F)(F)F)c2)nn1C(=O)Nc1ccccc1Cl,84 to 86
9,Cc1ccc(C2c3c(C)c(N4C(=O)CC(c5ccccc5)C4=O)c(C)c(C)c3OC2(C)C)cc1 (centres undefined),130 to 131
10,O=C(Oc1ccc(OC(=O)c2ccccc2)c(-c2ccccc2)c1)c1cc(O)c(O)c(O)c1,82 to 84
11,Cc1c(-c2csc(-c3ccncc3)n2)c(=O)[nH]c2ccccc12,> 250
12,Cc1cccc(NC(=O)NC2N=C(C3CC3)c3cccc(C)c3N(CC(=O)N3CC4CCC(CC4)C3)C2=O)c1 (centres undefined),172 to 174
13,Clc1ccc(-c2nc3ccccc3n2-c2ccccc2)cc1,139 to 141
14,Cc1cccc(C)c1OC(=O)c1ccccc1C(=O)Oc1c(C)cccc1C,174 to 176
15,C(=Nn1ccnc1)c1ccccc1,115
16,Cc1cccc(C(C)C)c1NC(=O)Nc1c(C)nc(-c2ccccc2)nc1-c1ccccc1Cl,266 to 267
17,Cc1cc(-n2cncn2)c2cc(Cl)cc(Cl)c2n1,220 to 222
18,CCn1c2ccc(C(=O)CC(C)=O)cc2c2cc(C(=O)c3ccc(F)cc3C)ccc21,132
19,COc1cccc(N2CCN(CCn3c(=O)[nH]c4cscc4c3=O)CC2)c1,184 to 186
20,CC1OC(N2CC(C)(I)C(=O)NC2=O)CC1O[Si](c1ccccc1)(c1ccccc1)C(C)(C)C (centres undefined),142
21,CC1Cc2cc(F)ccc2C1=Cc1ccc(S(C)(=O)=O)cc1 (centres undefined),177
22,COc1cc(OC)nc(-n2c(N)nc3cc(C)ccc32)n1,> 300
23,Clc1ccc2[nH]c3c(c2c1)CCN1CCCC=C31,114
24,OC(c1ccc(F)cc1)(c1ccc(F)cc1)C1SCSCS1,124 to 125
25,NC(=O)N/N=C(/C(=O)O)c1ccc(OCCOc2ccc3ccccc3c2)cc1,204

row,Compound,melting point [°C]
1,Cc1noc(-c2ncn3c2CN(C)C(=O)c2cc(F)ccc2-3)n1,244 to 245
2,O=C1NC(=O)C(Cc2ccc(C(=O)/C=C/c3ccccc3)cc2)S1 (centres undefined),147 to 149
3,NC(=O)N1c2ccccc2C(Br)C(Br)c2ccccc21 (centres undefined),144
4,O=C(CBr)Nc1cccc(O)c1,167 to 170
5,CCC(C(=O)O)C1=NC(c2ccccc2)(c2ccccc2)CO1 (centres undefined),125 to 126
6,COC(=O)[C@@H]1C[C@H](C(=O)O)Nc2cc(Cl)ccc21 (relative stereo),122 to 124
7,C[C@H]1CCCC(C)(C)[C@@H]1[C@H](O)c1ccc(F)c(C#N)c1,118 to 119
8,CC(C)c1[nH]c(Cl)c(C#N)c1SC#N,159
9,CC1Cc2cc(Br)ccc2C1=O (centres undefined),55
10,Cc1cc(C)c2c(C)coc2c1Cc1ccc(C(C)C)cc1,106 to 107
11,Cc1cn(C2CCCCC2)c(=O)[nH]c1=S,177 to 178
12,CCCC[C@H](C)CC(=O)N[C@H](CCC(=O)N[C@@H](C)C(=O)N[C@H](C)C(=O)O)C(=O)O,165 to 168
13,CC(C)(C)C(=O)Nc1c(F)cc(F)cc1Oc1ccc(C(C)(C)C(N)=O)cc1,169 to 170
14,Cc1oc(-c2ccccc2)nc1CCOc1ccc(C[C@@H](C(=O)O)n2cccc2)cc1,155 to 156
15,Cc1cc(-c2cc(C(F)(F)F)n3ncc(-c4ccncc4)c3n2)ccc1Cl,247
16,COc1cc(-c2csc(N(CCC3CCCCC3)C(=O)c3cc4ccccc4n3CC(=O)O)n2)c(OC)cc1C,198
17,Cc1cc(C)nc(NC(=O)c2ccn3c2CSC3c2cccnc2)c1 (centres undefined),171
18,O=Cc1nc(-c2ccccc2)c(-c2ccccc2)n1Cc1ccccc1,146 to 147
19,Nc1cc(F)c(F)c(Br)c1Cl,83 to 86
20,CCn1c([N+](=O)[O-])cnc1-c1nnc2ccc(N)nn12,218 to 222
21,CC(C)c1ccc(S(=O)(=O)c2ccccc2)cc1S(=O)(=O)NC1CCN(C(=O)c2ccc(C(C)(C)C)cc2)CC1,150 to 152
22,CCC12CCC(=O)C=C1c1c(cc(OCC(=O)O)c(Cl)c1Cl)C2C (centres undefined),212 to 214
23,CC(C)CCNC(=O)c1ccc2c(c1)N(C(C)CN1CCCC1CO)c1ccccc1S2 (centres undefined),140
24,COc1c(Cl)ccc(-c2nc(C(=O)NOC3CCCCO3)c(Cl)c(N)c2F)c1F (centres undefined),177 to 180
25,CCC1(CC)OC(C(=O)O)Oc2ccc(Cl)cc21 (centres undefined),108

row,Compound,melting point [°C]
1,CCOC(=O)NC(=S)C1=C(N2CCOCC2)CCC1,114 to 118
2,CC12CC=CCC1CCC1C2CCC2(C)C(C(N)=O)CCC12 (centres undefined),199 to 202
3,FC(F)(F)c1ccc(CN2CC=C(/C=C/c3ccccc3)CC2)cc1,125 to 127
4,CNC(=O)[C@@H]1C[C@@H](OC(C)(C)C)CN1S(=O)(=O)c1ccc(Cl)c(CBr)c1Cl,73
5,O=C(O)CN1C(=O)C(=Cc2ccc(O)cc2)SC1=S,> 300
6,O=C(O)C1=CCN2C=CC=CC2=C1,258 to 262
7,NC(=O)C(=O)c1c2n(c3ccccc13)CCNCC2,214 to 215
8,CC(=O)Nc1ccc(C23CC2C(=O)NC3=O)cc1 (centres undefined),> 230
9,COc1ccc2c(=O)ccn(CCN3CCC(NC(=O)OC(C)(C)C)CC3)c2c1,207
10,C=CC=CN(C(=O)CCl)c1c(C)cccc1C,88
11,COc1ccc(-n2cccc2-c2ccc(S(C)(=O)=O)cc2)cc1OC,124 to 126
12,Nc1nc(C(=Cc2c(Cl)ccc(Cl)c2Cl)C(=O)O)cs1,> 210
13,CC(C)(C(N)=O)c1ccc2nc(-c3ccncc3)[nH]c2c1,274 to 276
14,COC(=O)c1n[nH]cc1[N+](=O)[O-],115 to 117
15,CC(=O)N1CCN(C2=CC(C)(C)Oc3ccc(C#N)cc32)C1=NC#N,200 to 201
16,COC1Nc2c(OC(C)=O)cccc2C(=O)N2CCCC12 (centres undefined),147 to 150
17,O=C(OCc1ccccc1)c1cc(-c2ccc(-c3ccc(C(F)(F)F)cc3)o2)ccc1OCc1ccccc1,97 to 98
18,NS(=O)(=O)Oc1ccc2cc(C3CCCCC3)sc2c1,128
19,CC(C)c1nc(C(O)(C(F)(F)F)C(F)(F)F)[nH]c1-c1ccc(S(C)(=O)=O)cc1,182 to 184
20,COc1cccc(-c2ccc3cc(OC)ccc3c2Oc2ccc(C=O)cc2)c1,145 to 146
21,CCc1ccnc(C(=O)c2[nH]c3ccc(C(F)(F)F)cc3c2CC(=O)O)c1,204
22,CC(C)(C)CNc1nc(NC(C)(C)C)cc(N2CCNCC2)n1,146 to 148
23,C[C@H](C(=O)O)C(C)(C)c1ccccc1,69 to 72
24,CC(C)c1nc(Cl)c2c(-c3ccc([N+](=O)[O-])o3)nn(C)c2n1,112
